From patent US20150203812A1, “Inhibitors of Voltage Gated Ion Channels” (priority 2014, published 2015)

What follows are compounds tested against T1, human Hv1 channel (Homo sapiens, UniProt Q96D96) (assay: Patch-clamp assay of Hv1 proton transport inhibition in Xenopus oocytes expressing human Hv1). Conditions: 4 μM.
T1 construct: expressed in transfected cells; host or cells: Xenopus oocytes (cRNA injection, pGEMHE vector)
T1 sequence (Q96D96 1-273): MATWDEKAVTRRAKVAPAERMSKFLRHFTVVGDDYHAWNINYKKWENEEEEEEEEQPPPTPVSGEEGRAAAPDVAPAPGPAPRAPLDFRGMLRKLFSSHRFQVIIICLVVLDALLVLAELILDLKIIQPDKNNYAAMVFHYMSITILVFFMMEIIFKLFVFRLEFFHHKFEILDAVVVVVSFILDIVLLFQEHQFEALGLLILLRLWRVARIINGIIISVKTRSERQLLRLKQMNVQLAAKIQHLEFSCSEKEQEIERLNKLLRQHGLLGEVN
Format: cell-based
Protocol: Plasmids were linearized with either NheI or SphI restriction enzymes (New England Biolabs) before in vitro transcription. RNA synthesis was carried out with a T7 mMessage mMachine transcription kit (Ambion). […] The linearized plasmid was transcribed with SP6 RNA polymerase. cRNAs were injected in Xenopus oocytes (50 nl per cell, 0.3-1.5 μg/μl) 1-3 days before the electro-physiological measurements. Cells were kept at 18° C. in ND96 medium containing 96 mM NaCl, 2 mM KCl, 1.8 mM CaCl2, 1 mM MgCl2, 10 mM HEPES, 5 mM pyruvate, 100 μg/ml gentamycin (pH 7.2).
The bath solution contained 100 mM 2-(N-morpholino)ethanesulphonic acid (MES), 30 mM tetraethylammonium (TEA) methanesulfonate, 5 mM TEA chloride, 5 mM ethyleneglycol-bis(2-ami-noethyl)-N,N,N0,N0-tetra-acetic acid (EGTA), adjusted to pH 6.0 with TEA hydroxide. For recordings carried out in the absence of pH gradient (pHi=pHo=6.0), the pipette solution had the same composition of the bath solution. Some of the measurements were performed in the presence of a pH gradient (pHi=6.0, pHo=7.5). In these cases the extracellular solution contained 100 mM 4-(2-hydroxyethyl)-1-piperazineethanesulfonic acid (HEPES), 40 mM TEA methanesulfonate, 5 mM TEA chloride, adjusted to pH 7.5 with TEA hydroxide. Native proton currents in BV-2, RAW264.7, and THP-1 were measured in whole-cell configuration with an intracellular solution containing: 90 mM TEA methanesulfonate, 100 mM MES, 2 mM MgCl2, 2 mM EGTA, adjusted to pH 6.0 with TEA hydroxide. The extracellular solution contained: 85 mM TEA methanesulfonate, 100 mM HEPES, 3 mM CaCl2, 1 mM EGTA, adjusted to pH 7.5 with TEA hydroxide. All measurements were performed at 22° C.±2° C. Pipettes had 2-4 M access resistance. Current traces were filtered at 1 kHz, sampled at 5 kHz and analyzed with Clampfit10.2 (Molecular Devices) and Origin8.1 (OriginLab).

| inhibition at 4 µM [%] | Compound |
| --- | --- |
| 57 ± 10 | N=C(N)Nc1nc2ccc([N+](=O)[O-])cc2[nH]1 [5-nitro-2-guanidinobenzimidazole] |

Same assay, conditions: 40 μM

| inhibition at 40 µM [%] | Compound |
| --- | --- |
| 28 ± 7 | Nc1nnc(Nc2ccc(Cl)cc2)[nH]1 [N(3)-(4-chlorophenyl)-4H-1,2,4-triazole-3,5-diamine] |

Same assay, conditions: 200 μM

| inhibition at 200 µM [%] | Hv1 proton transport % inhibition [%] | Compound |
| --- | --- | --- |
| 82.6 ± 2.25 | – | N=C(N)Nc1nc2ccccc2[nH]1 [2-guanidinobenzimidazole] |
| – | 21.5 ± 2.7 | NC(N)=Nc1nc(CSCCC(N)=NS(N)(=O)=O)cs1 [3-([2-(diaminomethyleneamino)thiazol-4-yllmethylthio)-N′-sulfamoylpropanimidamide] |
| 0.5 ± 1 | – | CC(=O)N(C(=N)NC(=N)N)c1ccccc1 [N-(guanidino-iminomethyl)-N-phenylacetamide] |
| 4.3 ± 2.3 | – | N=C(N)NN [aminoguanidine, amino-guanidine] |
| 31 | – | CCOC(=O)c1sc(NC(=N)N)nc1C [ethyl 2-[[amino(imino)methyl]amino]-4-methyl-1,3-thiazole-5-carboxylate] |
| 39.4 ± 3.4 | – | CCOC(=O)c1nc(NC(=N)N)sc1C [ethyl 2-[[amino(imino)methyl]amino]-5-methyl-1,3-thiazole-4-carboxylate] |
| – | 68.2 ± 2.2 | CCOC(=O)Cc1sc(NC(=N)N)nc1C [ethyl (2-[[amino(imino)methyl]amino1-4-methyl-1,3-thiazol-5-yl)acetate] |
| 73 ± 3 | – | CC(C)OC(=O)CCCCC(=NNC(=N)N)c1ccccc1 [isopropyl 6-(guanidinoimino)-6-phenylhexanoate] |

Continued, compound first:

| Compound | inhibition at 200 µM [%] | Hv1 proton transport % inhibition [%] |
| --- | --- | --- |
| CN(C)C(=N)NC(=N)N [1,1-dimethylbiguanide] | 6.8 ± 2.25 | – |
| N=C(N)Nc1nc2ccccc2s1 [1-(1,3-benzothiazol-2-yl)guanidine] | 81 | – |
| N=C(N)Nc1nc2ccccc2o1 [1-(1,3-benzoxazol-2-yl)guanidine] | 1 ± 1 | – |
| COc1ccc(CCN2CCC(Nc3nc4ccccc4n3Cc3ccc(F)cc3)CC2)cc1 [1-[(4-fluorophenyl)methyl]-N-[1-[2-(4-methoxyphenyl)ethyl]-4-piperidylibenzoimidazol-2-amine] | – | 67 ± 6 |
| Nc1nc2ccccc2[nH]1 [2-aminobenzimidazole] | 29.8 ± 2.5 | – |
| Nc1ncc[nH]1 [2-aminoimidazole] | 21.2 ± 5.1 | – |
| Nc1ncccn1 [2-aminopyrimidine] | 2 ± 1 | – |
| Cc1nc(NC(=N)N)nc2ccccc12 [2-guanidino-4-methylquinazoline] | 31.7 ± 0.7 | – |
| N=C(N)NCCCCN [agmatine] | 18.5 ± 1.5 | – |

Same assay, conditions: 600 μM

| Hv1 proton transport % inhibition [%] | Compound |
| --- | --- |
| 0 | CN1CC(=O)NC1=N [Creatinine, reference compound] |
